ChEMBL document CHEMBL1159157, “Novel inhibitors of influenza sialidase related to GG167 Synthesis of 4-amino and guanidino-4H-pyran-2-carboxylic acid-6-propylamides; selective inhibitors of influenza a virus sialidase” (Bioorg Med Chem Lett, 1996)
Values after ≈ are worked out from the molar mass of the structure shown.

Experiments:
Influenza B virus = assay: In vitro antiviral activity was evaluated in a plaque reduction assay against influenza B; type: functional, organism-based
Influenza A virus = assay: In vitro antiviral activity was evaluated in a plaque reduction assay against influenza A; type: functional, organism-based

| Compound | IC50 (Influenza B virus) [ng/mL] | IC50 (Influenza A virus) [ng/mL] |
| --- | --- | --- |
| CCCN(C)C(=O)[C@@H]1OC(C(=O)O)=C[C@H](NC(=N)N)[C@H]1NC(C)=O | 2200 (≈ 6.44 µM) | 11 (≈ 0.0322 µM) |
| CCCN(C)C(=O)[C@@H]1OC(C(=O)O)=C[C@H](N)[C@H]1NC(C)=O | 16000 (≈ 53.5 µM) | 320 (≈ 1.07 µM) |
| CCCN(CCC)C(=O)[C@@H]1OC(C(=O)O)=C[C@H](NC(=N)N)[C@H]1NC(C)=O | – | 0.1 (≈ 0.000271 µM) |
| CCCNC(=O)[C@@H]1OC(C(=O)O)=C[C@H](N)[C@H]1NC(C)=O | 44000 (≈ 154 µM) | – |
| CC(=O)N[C@H]1[C@H]([C@H](O)[C@H](O)CO)OC(C(=O)O)=C[C@@H]1N | 20 (≈ 0.0689 µM) | 470 (≈ 1.62 µM) |
| CCCNC(=O)[C@@H]1OC(C(=O)O)=C[C@H](NC(=N)N)[C@H]1NC(C)=O | 3800 (≈ 11.6 µM) | 280 (≈ 0.855 µM) |
